Data published in article PMC6704710, “Preclinical evaluation of 3D185, a novel potent inhibitor of FGFR1/2/3 and CSF-1R, in FGFR-dependent and macrophage-dominant cancer models” (Journal of Experimental & Clinical Cancer Research : CR, 2019).
pIC50: −log10 of the molar value.

Experiments:
Assay in all cases: Eurofins kinase panel
Format in all cases: biochemical
Axl(h) = target: T1, Axl(h) (Homo sapiens, UniProt P30530); settings: read-out: Inhibition rate (%)
T1 construct: purchased Eurofins (KinaseProfiler)
T1 sequence (P30530 26-894): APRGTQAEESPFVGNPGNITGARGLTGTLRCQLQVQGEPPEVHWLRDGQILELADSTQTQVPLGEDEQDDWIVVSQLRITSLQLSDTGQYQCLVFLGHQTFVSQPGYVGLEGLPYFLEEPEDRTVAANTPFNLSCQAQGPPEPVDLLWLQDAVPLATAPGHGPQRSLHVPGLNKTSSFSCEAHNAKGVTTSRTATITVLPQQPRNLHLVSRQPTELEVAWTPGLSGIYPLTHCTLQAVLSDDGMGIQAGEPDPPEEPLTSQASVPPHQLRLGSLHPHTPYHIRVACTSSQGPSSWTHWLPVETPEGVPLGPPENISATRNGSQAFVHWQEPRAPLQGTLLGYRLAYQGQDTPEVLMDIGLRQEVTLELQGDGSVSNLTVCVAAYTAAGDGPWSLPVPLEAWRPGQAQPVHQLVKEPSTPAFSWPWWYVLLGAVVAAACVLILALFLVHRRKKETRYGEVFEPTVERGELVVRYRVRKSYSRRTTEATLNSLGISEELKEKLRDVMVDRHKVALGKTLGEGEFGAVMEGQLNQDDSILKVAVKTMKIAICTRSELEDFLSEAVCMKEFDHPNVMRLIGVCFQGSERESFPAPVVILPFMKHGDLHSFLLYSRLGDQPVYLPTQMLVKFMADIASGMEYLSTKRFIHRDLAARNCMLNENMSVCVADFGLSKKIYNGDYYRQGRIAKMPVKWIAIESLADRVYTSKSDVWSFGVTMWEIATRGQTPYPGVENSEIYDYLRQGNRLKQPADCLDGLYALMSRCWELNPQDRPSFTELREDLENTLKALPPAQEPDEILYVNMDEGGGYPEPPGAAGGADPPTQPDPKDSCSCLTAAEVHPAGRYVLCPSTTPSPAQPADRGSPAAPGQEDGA

CHK2(h) = target: T2, CHK2(h) (Homo sapiens, UniProt O96017); settings: read-out: Inhibition rate (%)
T2 construct: purchased Eurofins (KinaseProfiler)

FGFR3(h) = FGFR3(h) (Homo sapiens, UniProt P22607)
FGFR4(h) = target: T3, FGFR4(h) (Homo sapiens, UniProt P22455); settings: read-out: Inhibition rate (%)
T3 construct: purchased Eurofins (KinaseProfiler)

IRAK4(h) = target: T4, IRAK4(h) (Homo sapiens, UniProt Q9NWZ3); settings: read-out: Inhibition rate (%)
T4 construct: purchased Eurofins (KinaseProfiler)
T4 sequence (Q9NWZ3 1-460): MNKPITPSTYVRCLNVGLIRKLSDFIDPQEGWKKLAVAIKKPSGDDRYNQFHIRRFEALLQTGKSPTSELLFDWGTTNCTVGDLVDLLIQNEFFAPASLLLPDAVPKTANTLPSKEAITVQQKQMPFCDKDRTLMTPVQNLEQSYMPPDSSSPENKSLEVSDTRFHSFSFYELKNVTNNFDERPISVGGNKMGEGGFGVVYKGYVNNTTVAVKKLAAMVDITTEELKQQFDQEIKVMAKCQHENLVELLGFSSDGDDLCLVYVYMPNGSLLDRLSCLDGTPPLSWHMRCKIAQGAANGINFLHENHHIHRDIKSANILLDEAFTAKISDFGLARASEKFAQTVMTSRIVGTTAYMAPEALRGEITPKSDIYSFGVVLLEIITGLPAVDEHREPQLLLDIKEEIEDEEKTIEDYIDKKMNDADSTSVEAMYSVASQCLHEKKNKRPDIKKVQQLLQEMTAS

MEK1(h) = target: T5, MEK1(h) (Homo sapiens, UniProt Q02750); settings: read-out: Inhibition rate (%)
T5 construct: purchased Eurofins (KinaseProfiler)

PDGFRα(D842V)(h) = target: T6, PDGFRα(D842V)(h) (Homo sapiens, UniProt P16234, D842V); settings: read-out: Inhibition rate (%)
T6 construct: purchased Eurofins (KinaseProfiler)

[1] = target: T7, PI3 Kinase (p110β/p85α)(h) (Homo sapiens, UniProt P42338); settings: read-out: Inhibition rate (%)
T7 construct: purchased Eurofins (KinaseProfiler)

PKCγ(h) = target: T8, PKCγ(h) (Homo sapiens, UniProt P05129); settings: read-out: Inhibition rate (%)
T8 construct: purchased Eurofins (KinaseProfiler)

TRB2(h) = target: T9, TRB2(h) (Homo sapiens, UniProt Q92519); settings: read-out: Inhibition rate (%)
T9 construct: purchased Eurofins (KinaseProfiler)
T9 sequence (Q92519 1-343): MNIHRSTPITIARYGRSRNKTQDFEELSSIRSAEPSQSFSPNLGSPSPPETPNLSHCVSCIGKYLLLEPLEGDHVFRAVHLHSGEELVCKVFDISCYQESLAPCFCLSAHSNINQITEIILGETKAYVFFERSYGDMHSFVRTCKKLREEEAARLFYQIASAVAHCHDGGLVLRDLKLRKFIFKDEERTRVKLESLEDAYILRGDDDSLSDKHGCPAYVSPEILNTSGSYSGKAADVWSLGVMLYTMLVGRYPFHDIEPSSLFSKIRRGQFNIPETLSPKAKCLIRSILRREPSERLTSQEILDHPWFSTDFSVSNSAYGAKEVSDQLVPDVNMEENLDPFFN

ZIPK(h) = target: T10, ZIPK(h) (Homo sapiens, UniProt O43293); settings: read-out: Inhibition rate (%)
T10 construct: purchased Eurofins (KinaseProfiler)
T10 sequence (O43293 whole entry): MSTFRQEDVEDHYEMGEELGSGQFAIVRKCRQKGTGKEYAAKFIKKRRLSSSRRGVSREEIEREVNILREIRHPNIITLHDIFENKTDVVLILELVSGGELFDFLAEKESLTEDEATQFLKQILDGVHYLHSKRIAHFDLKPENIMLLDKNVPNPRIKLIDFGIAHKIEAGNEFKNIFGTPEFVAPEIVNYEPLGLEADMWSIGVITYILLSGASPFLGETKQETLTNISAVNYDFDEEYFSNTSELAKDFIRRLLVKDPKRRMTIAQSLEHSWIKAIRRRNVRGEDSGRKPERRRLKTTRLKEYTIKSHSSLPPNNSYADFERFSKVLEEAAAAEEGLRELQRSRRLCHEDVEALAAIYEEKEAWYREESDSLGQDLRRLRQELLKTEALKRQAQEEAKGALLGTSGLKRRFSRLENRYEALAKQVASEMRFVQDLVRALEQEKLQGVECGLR

T5 sequence (Q02750 whole entry): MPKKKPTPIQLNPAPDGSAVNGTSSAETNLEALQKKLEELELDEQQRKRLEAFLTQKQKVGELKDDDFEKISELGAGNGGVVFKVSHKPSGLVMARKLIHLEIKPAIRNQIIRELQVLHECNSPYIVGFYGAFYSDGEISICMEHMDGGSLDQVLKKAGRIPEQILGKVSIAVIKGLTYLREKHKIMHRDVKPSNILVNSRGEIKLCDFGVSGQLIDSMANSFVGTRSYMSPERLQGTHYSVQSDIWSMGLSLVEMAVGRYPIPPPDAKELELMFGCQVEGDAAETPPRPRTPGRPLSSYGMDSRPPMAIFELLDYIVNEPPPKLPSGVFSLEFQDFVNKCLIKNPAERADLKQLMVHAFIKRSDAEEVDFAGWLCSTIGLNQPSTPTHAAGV
T2 sequence (O96017 whole entry): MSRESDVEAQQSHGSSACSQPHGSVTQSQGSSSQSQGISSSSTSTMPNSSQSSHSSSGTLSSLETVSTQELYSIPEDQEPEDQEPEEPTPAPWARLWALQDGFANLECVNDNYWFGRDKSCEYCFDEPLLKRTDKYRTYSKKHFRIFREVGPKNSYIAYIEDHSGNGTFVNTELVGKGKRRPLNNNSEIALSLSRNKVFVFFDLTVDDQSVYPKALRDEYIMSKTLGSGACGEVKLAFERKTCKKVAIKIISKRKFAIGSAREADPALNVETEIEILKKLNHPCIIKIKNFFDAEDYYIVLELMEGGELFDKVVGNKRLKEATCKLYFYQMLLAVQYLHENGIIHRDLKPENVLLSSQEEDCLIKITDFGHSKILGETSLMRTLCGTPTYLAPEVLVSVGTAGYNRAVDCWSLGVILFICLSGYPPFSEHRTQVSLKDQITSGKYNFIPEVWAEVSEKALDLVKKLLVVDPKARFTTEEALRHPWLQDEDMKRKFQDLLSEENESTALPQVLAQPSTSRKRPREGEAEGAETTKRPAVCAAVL
T3 sequence (P22455 22-802): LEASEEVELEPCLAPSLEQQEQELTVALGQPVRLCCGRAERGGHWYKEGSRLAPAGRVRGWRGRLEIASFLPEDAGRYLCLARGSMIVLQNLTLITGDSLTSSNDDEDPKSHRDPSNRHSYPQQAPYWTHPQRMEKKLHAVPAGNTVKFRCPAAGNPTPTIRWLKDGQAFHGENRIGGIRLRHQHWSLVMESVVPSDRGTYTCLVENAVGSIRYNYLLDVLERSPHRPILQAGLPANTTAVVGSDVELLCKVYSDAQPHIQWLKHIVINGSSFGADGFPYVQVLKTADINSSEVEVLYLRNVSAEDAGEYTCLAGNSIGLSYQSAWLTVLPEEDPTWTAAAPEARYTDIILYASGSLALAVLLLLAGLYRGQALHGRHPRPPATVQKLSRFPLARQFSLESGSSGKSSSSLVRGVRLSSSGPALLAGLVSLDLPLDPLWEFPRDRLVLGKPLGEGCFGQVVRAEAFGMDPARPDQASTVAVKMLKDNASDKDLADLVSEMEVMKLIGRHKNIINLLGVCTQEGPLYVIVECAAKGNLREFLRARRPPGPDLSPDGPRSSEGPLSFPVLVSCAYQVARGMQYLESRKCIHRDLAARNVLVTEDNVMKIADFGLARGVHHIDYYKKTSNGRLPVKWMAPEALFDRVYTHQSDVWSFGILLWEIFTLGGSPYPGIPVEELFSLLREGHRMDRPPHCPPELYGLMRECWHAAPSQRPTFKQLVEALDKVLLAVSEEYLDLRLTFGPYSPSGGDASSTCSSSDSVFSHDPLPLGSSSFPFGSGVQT
T6 sequence (P16234 24-1089 D842V): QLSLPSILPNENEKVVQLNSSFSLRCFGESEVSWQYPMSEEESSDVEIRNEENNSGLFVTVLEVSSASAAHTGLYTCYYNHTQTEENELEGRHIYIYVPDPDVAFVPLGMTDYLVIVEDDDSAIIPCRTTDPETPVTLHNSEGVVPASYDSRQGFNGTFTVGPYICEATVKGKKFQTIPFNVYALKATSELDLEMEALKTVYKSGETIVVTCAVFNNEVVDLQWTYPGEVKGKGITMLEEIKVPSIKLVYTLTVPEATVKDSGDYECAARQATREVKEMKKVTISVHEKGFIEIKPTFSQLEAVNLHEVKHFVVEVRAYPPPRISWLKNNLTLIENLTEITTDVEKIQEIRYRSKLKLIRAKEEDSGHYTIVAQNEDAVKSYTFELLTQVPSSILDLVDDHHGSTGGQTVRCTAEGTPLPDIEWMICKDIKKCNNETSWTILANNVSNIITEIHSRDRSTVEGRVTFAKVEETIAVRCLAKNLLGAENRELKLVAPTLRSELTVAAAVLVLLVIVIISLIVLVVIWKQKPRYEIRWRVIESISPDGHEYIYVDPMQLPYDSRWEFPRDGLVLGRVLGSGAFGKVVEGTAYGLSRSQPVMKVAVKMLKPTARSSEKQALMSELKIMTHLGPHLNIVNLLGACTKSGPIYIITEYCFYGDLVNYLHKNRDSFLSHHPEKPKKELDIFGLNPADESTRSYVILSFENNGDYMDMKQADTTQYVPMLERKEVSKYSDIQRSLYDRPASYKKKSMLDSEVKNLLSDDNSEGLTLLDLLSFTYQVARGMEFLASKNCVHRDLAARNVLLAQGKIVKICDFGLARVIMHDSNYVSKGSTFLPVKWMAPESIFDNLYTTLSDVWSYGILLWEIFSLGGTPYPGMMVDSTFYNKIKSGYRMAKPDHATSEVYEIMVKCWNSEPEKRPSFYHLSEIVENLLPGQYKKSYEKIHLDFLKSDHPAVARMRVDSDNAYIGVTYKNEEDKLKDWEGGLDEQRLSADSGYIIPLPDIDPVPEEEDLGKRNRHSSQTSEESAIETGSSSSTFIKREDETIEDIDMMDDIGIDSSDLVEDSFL
Chain of FGFR3(h) (P22607 23-806): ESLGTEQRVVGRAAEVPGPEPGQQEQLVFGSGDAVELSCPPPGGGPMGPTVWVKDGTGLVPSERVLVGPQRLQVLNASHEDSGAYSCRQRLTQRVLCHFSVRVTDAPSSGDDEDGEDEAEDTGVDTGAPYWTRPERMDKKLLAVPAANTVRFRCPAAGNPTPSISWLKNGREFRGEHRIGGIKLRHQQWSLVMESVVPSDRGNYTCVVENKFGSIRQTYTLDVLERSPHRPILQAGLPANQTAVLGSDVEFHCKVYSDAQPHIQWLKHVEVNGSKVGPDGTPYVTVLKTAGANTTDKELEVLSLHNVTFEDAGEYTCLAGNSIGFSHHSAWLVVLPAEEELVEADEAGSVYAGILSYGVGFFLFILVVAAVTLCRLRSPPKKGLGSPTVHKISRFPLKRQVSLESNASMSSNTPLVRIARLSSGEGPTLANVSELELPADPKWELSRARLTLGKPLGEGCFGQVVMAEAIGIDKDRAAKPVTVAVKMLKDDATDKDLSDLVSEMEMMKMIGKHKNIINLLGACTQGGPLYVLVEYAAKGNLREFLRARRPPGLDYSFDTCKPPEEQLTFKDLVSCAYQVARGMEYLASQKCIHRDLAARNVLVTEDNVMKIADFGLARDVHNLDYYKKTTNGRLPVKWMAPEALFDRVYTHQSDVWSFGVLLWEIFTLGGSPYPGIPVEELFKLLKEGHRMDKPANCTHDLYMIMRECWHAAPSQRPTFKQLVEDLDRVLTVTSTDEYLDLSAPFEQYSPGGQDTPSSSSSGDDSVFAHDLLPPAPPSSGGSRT

Q: COc1cc(OC)c(Cl)c(-c2ccc3c(NC(=O)c4ccc(N5CCNC(C)(C)C5)cc4)n[nH]c3n2)c1Cl [3D185] was tested. Which inhibition at 0.01 µM (Axl(h); 10 nM) did it give?
A: -7%

Q: And the inhibition at 0.1 µM (Axl(h); 100 nM)?
A: -9%

Q: What about the inhibition at 1 µM (Axl(h); 1000 nM) of the same compound?
A: 26%

Q: What about the inhibition at 0.01 µM (CHK2(h); 10 nM) of the same compound?
A: 0%

Q: And the inhibition at 0.1 µM (CHK2(h); 100 nM)?
A: 4%

Q: What about the inhibition at 1 µM (CHK2(h); 1000 nM) of the same compound?
A: 11%

Q: What about the pIC50 (FGFR3(h); estimated from 372-kinase panel) of the same compound?
A: > 8.00

Q: And the inhibition at 0.01 µM (FGFR3(h); read-out: Inhibition rate (%))?
A: 94%

Q: What about the inhibition at 0.1 µM (FGFR3(h); read-out: Inhibition rate (%)) of the same compound?
A: 99%

Q: What about the inhibition at 1 µM (FGFR3(h); read-out: Inhibition rate (%)) of the same compound?
A: 100%

Q: And the inhibition at 0.01 µM (FGFR4(h); 10 nM)?
A: 43%

Q: What about the inhibition at 0.1 µM (FGFR4(h); 100 nM) of the same compound?
A: 91%

Q: What about the inhibition at 1 µM (FGFR4(h); 1000 nM) of the same compound?
A: 100%

Q: What about the inhibition at 0.01 µM (IRAK4(h); 10 nM) of the same compound?
A: -2%

Q: What about the inhibition at 0.1 µM (IRAK4(h); 100 nM) of the same compound?
A: -2%

Q: What about the inhibition at 1 µM (IRAK4(h); 1000 nM) of the same compound?
A: -4%

Q: What about the inhibition at 0.01 µM (MEK1(h); 10 nM) of the same compound?
A: 10%

Q: And the inhibition at 0.1 µM (MEK1(h); 100 nM)?
A: 14%

Q: And the inhibition at 1 µM (MEK1(h); 1000 nM)?
A: 8%

Q: What about the inhibition at 0.01 µM (PDGFRα(D842V)(h); 10 nM) of the same compound?
A: -2%

Q: And the inhibition at 0.1 µM (PDGFRα(D842V)(h); 100 nM)?
A: 5%

Q: What about the inhibition at 1 µM (PDGFRα(D842V)(h); 1000 nM) of the same compound?
A: 9%

Q: What about the inhibition at 0.01 µM ([1]; 10 nM) of the same compound?
A: 0%

Q: What about the inhibition at 0.1 µM ([1]; 100 nM) of the same compound?
A: 1%

Q: And the inhibition at 1 µM ([1]; 1000 nM)?
A: 4%

Q: What about the inhibition at 0.01 µM (PKCγ(h); 10 nM) of the same compound?
A: -4%

Q: What about the inhibition at 0.1 µM (PKCγ(h); 100 nM) of the same compound?
A: -8%

Q: What about the inhibition at 1 µM (PKCγ(h); 1000 nM) of the same compound?
A: -1%

Q: What about the inhibition at 0.01 µM (TRB2(h); 10 nM) of the same compound?
A: -3%

Q: What about the inhibition at 0.1 µM (TRB2(h); 100 nM) of the same compound?
A: -7%

Q: And the inhibition at 1 µM (TRB2(h); 1000 nM)?
A: -4%

Q: What about the inhibition at 0.01 µM (ZIPK(h); 10 nM) of the same compound?
A: -3%

Q: What about the inhibition at 0.1 µM (ZIPK(h); 100 nM) of the same compound?
A: 0%

Q: And the inhibition at 1 µM (ZIPK(h); 1000 nM)?
A: 2%
